Data taken from patent US10813981B2, “Saposin B binds the lipofuscin bisretinoid A2E and prevents its enzymatic and photo degradation” (Syracuse University, priority 2017, dated 2020).

What was measured:
HRP [1] = target: T1, HRP (Armoracia rusticana, UniProt P00433); assay: A2E degradation by HRP/H2O2, absorbance kinetics at 340 nm; type: biochemical
T1 sequence (P00433 31-338): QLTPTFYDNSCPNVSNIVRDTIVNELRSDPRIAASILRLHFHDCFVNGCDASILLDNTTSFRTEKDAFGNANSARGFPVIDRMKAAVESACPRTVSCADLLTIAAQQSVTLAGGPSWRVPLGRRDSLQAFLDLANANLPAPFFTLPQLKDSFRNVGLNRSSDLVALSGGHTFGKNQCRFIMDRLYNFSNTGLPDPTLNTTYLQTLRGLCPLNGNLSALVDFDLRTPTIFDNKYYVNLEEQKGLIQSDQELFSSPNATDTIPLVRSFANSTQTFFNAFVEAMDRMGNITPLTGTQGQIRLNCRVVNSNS
Text: Horseradish peroxidase (HRP) is reported to cleave the bis-retinoid A2E. Thus, the ability of SapB to protect A2E from oxidative transformations by HRP was investigated.
In classic peroxidases, it is believed that reaction with hydrogen peroxide gives rise to two oxidizing equivalents (i.e. a porphyrin radical-cation and an Fe(IV)-oxo (ferryl) species) due to exposure of the prosthetic heme group to the bulk solution. […] Having established the presence of two different binding sites on SapB (one for A2E and one for CoQ10), the ability of SapB to protect A2E in the presence of CoQ10 was tested.
(§1) Conventional ultraviolet visible spectroscopy was performed on a Varian Cary 50 Bio spectrophotometer from Agilent Technologies. The stock solutions of various reagents were prepared as follow: HRP in DI water, A2E in DMSO, SapB in 50 mM phosphate buffer, pH 5.5, CoQ10 in THF (tetrahydrofurane) and 3% H2O2 solution diluted in DI water from an initial stock at 30%. The 340 nm kinetic experiments were monitored every 5 minutes for a total of 400 min following the sequential addition of all reagents as indicated in FIG. 4. The HRP solution of FIG. 5 was prepared in 20 mM phosphate buffer, 1% tween, pH 5.5, 25° C. All concentrations given in the figure caption are final concentrations following mixing of the reagents. The spectrophotometric data were further analyzed with OriginLab software version 8.

HRP [2] = target: T1, HRP; assay: Formation of verdoheme (P-670) from HRP Compound III, absorbance at 670 nm; type: biochemical; details: 12 μM A2E, alone or pre-complexed with SapB; 10 μM HRP, 100 μM H2O2
Procedure: Here, and in light of the kinetic results of FIG. 4, we followed the absorbance change at 670 nm to test the hypothesis of whether A2E may be a suitable substrate for the HRP/H2O2 system.
The experiments were then repeated in the presence of A2E and SapB to examine their effect on P-670 formation.
as §1

arylsulfatase A (ASA) = target: T2, arylsulfatase A (ASA) (Homo sapiens, UniProt P15289); details: at a set time-point; cited from earlier work
T2 sequence (P15289 19-507): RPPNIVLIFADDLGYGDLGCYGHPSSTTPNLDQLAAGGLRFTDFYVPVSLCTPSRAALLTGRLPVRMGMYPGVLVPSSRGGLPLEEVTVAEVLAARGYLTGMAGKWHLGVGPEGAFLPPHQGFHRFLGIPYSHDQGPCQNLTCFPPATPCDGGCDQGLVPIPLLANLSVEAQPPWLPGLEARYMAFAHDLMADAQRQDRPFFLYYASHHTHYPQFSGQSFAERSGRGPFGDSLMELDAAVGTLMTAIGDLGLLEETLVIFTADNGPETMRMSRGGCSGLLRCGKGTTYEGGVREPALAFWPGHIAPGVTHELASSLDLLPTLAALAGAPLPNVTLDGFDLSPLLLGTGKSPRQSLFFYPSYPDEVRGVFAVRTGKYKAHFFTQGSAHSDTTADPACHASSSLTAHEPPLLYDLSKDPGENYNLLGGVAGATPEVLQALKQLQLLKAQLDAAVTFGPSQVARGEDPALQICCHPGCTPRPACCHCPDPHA

[3] = target: T3, retinoid isomerohydrolase (RPE65 isomerohydrolase) (Homo sapiens, UniProt Q16518); details: non-palmitoylated, soluble, cytoplasmic RPE65; read-out: KD, direct binding to RPE65; cited from earlier work
T3 sequence (Q16518 1-533): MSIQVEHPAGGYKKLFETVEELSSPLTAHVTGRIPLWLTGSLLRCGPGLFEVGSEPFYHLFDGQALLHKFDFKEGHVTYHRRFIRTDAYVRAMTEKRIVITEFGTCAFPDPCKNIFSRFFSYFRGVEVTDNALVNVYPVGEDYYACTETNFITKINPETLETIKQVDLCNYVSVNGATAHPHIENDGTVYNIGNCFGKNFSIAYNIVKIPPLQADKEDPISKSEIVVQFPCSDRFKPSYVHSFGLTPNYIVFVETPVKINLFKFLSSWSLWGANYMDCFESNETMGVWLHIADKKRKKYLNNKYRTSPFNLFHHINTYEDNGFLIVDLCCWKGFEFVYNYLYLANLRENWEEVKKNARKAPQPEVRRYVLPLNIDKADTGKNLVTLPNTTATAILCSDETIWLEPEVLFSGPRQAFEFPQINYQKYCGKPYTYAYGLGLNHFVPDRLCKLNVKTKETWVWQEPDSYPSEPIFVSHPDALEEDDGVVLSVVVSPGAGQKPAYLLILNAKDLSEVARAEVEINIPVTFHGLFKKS

[4] = system: retinoic acid receptor (RAR); details: cited from earlier work

CC(C=CC1=C(C)CCCC1(C)C)=CC=CC(C)=Cc1cc(C=CC=C(C)C=CC2=C(C)CCCC2(C)C)cc[n+]1CCO [A2E, N-retinylidene-N-retinylethanolamine]
absorbance change at 340 nm, A2E pre-complexed with SapB (HRP [1]; 2:1 SapB:A2E ratio, + HRP + H2O2): very similar to that of a control mixture of HRP and H2O2 | absorbance, sequences (SapB+A2E)complex+CoQ10+HRP+H2O2 or (SapB+CoQ10)complex+A2E+HRP+H2O2 (HRP [1]; SapB and CoQ10 present): absorbance values similar to the sequence (SapB+A2E)complex+HRP+H2O2 | damage to A2E, sequence (SapB+HRP)complex+A2E+H2O2 (HRP [1]; SapB pre-complexed with HRP): partial damage | absorbance of A2E at 340 nm after H2O2 added to A2E containing HRP (HRP [1]; free A2E): decrease in the absorbance value | amount of verdoheme (P-670) formation (HRP [2]): significant reduction | interference with ASA specific activity (arylsulfatase A (ASA)): does not interfere | Kd [3]: 250 nM | ligand activity at RAR [4]: endogenous ligand
